Assay results: patent publication US20040023972A1, “Use of substituted imidazo[1,2-a]-pyridin-, -pyrimidin-and-pyrazin-3-yl-amine derivatives in the preparation of medicaments for inhibiting NOS” (Gruenenthal GmbH, priority 2000, published 2004)

Biological target: T1, NO synthase (Rattus norvegicus, UniProt P29476)
T1 construct: the supernatant was then removed by decantation and frozen in portions at −80° C; from tissue; host or cells: rat cerebellum, 20,000 g supernatant of homogenate
Experiment: HTS-NOS assay (NOS assay): conversion of radioactive arginine, cation-exchanger filter plate
Format: biochemical
Settings: read-out: HTS-NOS assay: % inhibition (10 μM)
In short: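 Rat cerebellum supernatant as NOS source, incubated with radiolabelled arginine plus cofactors including NADPH at 25 °C for 5-60 min depending on enzyme activity. Unconverted arginine was trapped on a cation-exchange filter plate, citrulline washed out, and bound arginine counted by scintillation; % inhibition versus no-compound reactions.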

Row | SMILES | inhibition at 10 µM [%]
1 | CC(=O)N(c1c(C)cccc1C)c1c(-c2cccc(Oc3ccc(Cl)cc3)c2)nc2ccccn12 [Example 195, N-{2-[3-(4-chloro-phenoxy)-phenyl]-imidazo[1,2-a]pyridin-3-yl}-N-(2,6-dimethyl-phenyl)-acetamide] | 54
2 | CC(=O)N(c1c(-c2ccc(C3OCCO3)o2)nc2cc(C)ccn12)C(C)(C)CC(C)(C)C [Example 196, N-[2-(5-[1,3]dioxolan-2-yl-furan-2-yl)-7-methyl-imidazo[1,2-a]pyridin-3-yl]-N-(1,1,3,3-tetramethyl-butyl)-acetamide] | 54
3 | CC(=O)N(c1c(-c2ccc(C(=O)O)o2)nc2cc(C)cc(C)n12)C1CCCCC1 [Example 197, 5-[3-(acetyl-cyclohexyl-amino)-5,7-dimethyl-imidazo[1,2-a]pyridin-2-yl]-furan-2-carboxylic acid] | 70
4 | CC(=O)N(c1c(-c2ccc([N+](=O)[O-])o2)nc2cc(C)ccn12)C(C)(C)C [Example 198, N-tert-butyl-N-[7-methyl-2-(5-nitro-furan-2-yl)-imidazo[1,2-a]pyridin-3-yl]-acetamide] | 54
5 | COc1ccccc1-c1nc2cc(C)ccn2c1N(C(C)=O)C(C)(C)CC(C)(C)C [Example 199, N-[2-(2-methoxy-phenyl)-7-methyl-imidazo[1,2-a]pyridin-3-yl]-N-(1,1,3,3-tetramethyl-butyl)-acetamide] | 57
6 | CC(=O)N(c1c(-c2ccc(C)o2)nc2ccccn12)C(C)(C)CC(C)(C)C [Example 200, N-[2-(5-methyl-furan-2-yl)-imidazo[1,2-a]pyridin-3-yl]-N-(1,1,3,3-tetramethylbutyl)-acetamide] | 58
7 | CC(=O)N(c1c(-c2ccc(C(=O)O)o2)nc2cc(C)ccn12)C(C)(C)C [Example 201, 5-[3-(acetyl-tert-butyl-amino)-7-methyl-imidazo[1,2-a]pyridin-2-yl]-furan-2-carboxylic acid] | 54
8 | CC(=O)N(c1c(-c2cc(C)c(C)o2)nc2ccccn12)C(C)(C)CC(C)(C)C [Example 202, N-[2-(4,5-dimethyl-furan-2-yl)-imidazo[1,2-a]pyridin-3-yl]-N-(1,1,3,3-tetramethyl-butyl)-acetamide] | 57
9 | CC(=O)N(c1c(-c2ccco2)nc2cc(C)cc(C)n12)C1CCCCC1 [Example 203, N-cyclohexyl-N-(2-furan-2-yl-5,7-dimethyl-imidazo[1,2-a]pyridin-3-yl)-acetamide] | 60
10 | CC(=O)N(c1c(-c2cccc3ccccc23)nc2cc(C)ccn12)C(C)(C)C [Example 204, N-tert-butyl-N-(7-methyl-2-naphthalen-1-yl-imidazo[1,2-a]pyridin-3-yl)-acetamide] | 54
11 | CC(=O)N(c1c(-c2ccc(C(=O)O)s2)nc2cnccn12)C(C)(C)CC(C)(C)C [Example 205, 5-{3-[acetyl-(1,1,3,3-tetramethyl-butyl)-amino]-imidazo[1,2-a]pyrazin-2-yl}-thiophene-2-carboxylic acid] | 52
12 | CCCCN(C(C)=O)c1c(-c2ccccc2C)nc2ncccn12 [Example 206, N-butyl-N-(2-o-tolyl-imidazo[1,2-a]pyrimidin-3-yl)acetamide] | 54
13 | COc1ccc(-c2nc3cc(C)ccn3c2N(C(C)=O)c2c(C)cccc2C)cc1OC [Example 207, N-[2-(3,4-dimethoxy-phenyl)-7-methyl-imidazo[1,2-a]pyridin-3-yl]-N-(2,6-dimethyl-phenyl)-acetamide] | 51
14 | CC(=O)N(c1c(-c2cc3ccccc3c3ccccc23)nc2cc(C)ccn12)C(C)(C)C [Example 208, N-tert-butyl-N-(7-methyl-2-phenanthren-9-yl-imidazo[1,2-a]pyridin-3-yl)-acetamide] | 63
15 | CC(=O)N(c1c(C)cccc1C)c1c(-c2ccccc2F)nc2cc(C)ccn12 [Example 209, N-(2,6-dimethyl-phenyl)-N-[2-(2-fluoro-phenyl)-7-methyl-imidazo[1,2-a]pyridin-3-yl]-acetamide] | 62
16 | COc1ccccc1-c1nc2c(C)cccn2c1N(C(C)=O)C(C)(C)CC(C)(C)C [Example 210, N-[2-(2-methoxy-phenyl)-8-methyl-imidazo[1,2-a]pyridin-3-yl]-N-(1,1,3,3-tetramethyl-butyl)-acetamide] | 53
17 | CC(=O)N(c1c(C)cccc1C)c1c(-c2cccc(O)c2)nc2cc(C)cc(C)n12 [Example 211, N-(2,6-dimethyl-phenyl)-N-[2-(3-hydroxy-phenyl)-5,7-dimethyl-imidazo[1,2-a]-pyridin-3-yl]-acetamide] | 73
18 | CC(=O)N(c1c(C)cccc1C)c1c(C(C)(C)C)nc2cc(C)ccn12 [Example 212, N-(2-tert-butyl-7-methyl-imidazo[1,2-a]pyridin-3-yl)-N-(2,6-dimethyl-phenyl)-acetamide] | 68

Row | SMILES | inhibition at 10 µM [%]
19 | COc1cc(-c2nc3c(C)cc(Br)cn3c2N(C(C)=O)c2c(C)cccc2C)ccc1OC(C)=O [Example 213, acetic acid 4-{3-[acetyl-(2,6-dimethyl-phenyl)-amino]-6-bromo-8-methyl-imidazo[1,2-a]pyridin-2-yl}-2-methoxy-phenyl ester] | 69
20 | CC(=O)N(c1c(-c2ccc(C3OCCO3)o2)nc2cc(C)ccn12)C(C)(C)C [Example 214, N-tert-butyl-N-[2-(5-[1,3]dioxolan-2-yl-furan-2-yl)-7-methyl-imidazo[1,2-a]-pyridin-3-yl]-acetamide] | 56
21 | CC(=O)N(c1c(-c2cc3ccccc3o2)nc2cc(C)ccn12)C(C)(C)CC(C)(C)C [Example 216, N-(2-benzofuran-2-yl-7-methyl-imidazo[1,2-a]pyridin-3-yl)-N-(1,1,3,3-tetramethyl-butyl)-acetamide] | 50
22 | CC(=O)N(c1c(-c2cc3ccccc3o2)nc2cc(C)cc(C)n12)C(C)(C)CC(C)(C)C [Example 217, N-(2-benzofuran-2-yl-5,7-dimethyl-imidazo[1,2-a]pyridin-3-yl)-N-(1,1,3,3-tetramethyl-butyl)-acetamide] | 63
23 | CC(=O)N(c1c(-c2ccc(C(=O)O)s2)nc2ccccn12)C(C)(C)C [Example 218, 5-[3-(acetyl-tert-butyl-amino)-imidazo[1,2-a]pyridin-2-yl]-thiophene-2-carboxylic acid] | 60
24 | CC(=O)N(c1c(C2CCCCC2)nc2cc(C)cc(C)n12)C(C)(C)CC(C)(C)C [Example 219, N-(2-cyclohexyl-5,7-dimethyl-imidazo[1,2-a]pyridin-3-yl)-N-(1,1,3,3-tetramethyl-butyl)-acetamide] | 62
25 | CC(=O)N(c1c(-c2ccc(C)o2)nc2ccccn12)C(C)(C)C [Example 220, N-tert-butyl-N-[2-(5-methyl-furan-2-yl)-imidazo[1,2-a]pyridin-3-yl]-acetamide] | 61
26 | CSc1ccc(-c2nc3ncccn3c2N(C(C)=O)C(C)(C)C)s1 [Example 221, N-tert-butyl-N-[2-(5-methylsulfanyl-thiophen-2-yl)-imidazo[1,2-a]pyrimidin-3-yl]-acetamide] | 54
27 | CC(=O)N(c1c(-c2cc(C)c(C)o2)nc2cccc(C)n12)C(C)(C)CC(C)(C)C [Example 222, N-[2-(4,5-dimethyl-furan-2-yl)-5-methyl-imidazo[1,2-a]pyridin-3-yl]-N-(1,1,3,3-tetramethyl-butyl)-acetamide] | 53
28 | CCCCN(C(C)=O)c1c(-c2ccc(Cl)cc2Cl)nc2ncccn12 [Example 223, N-butyl-N-[2-(2,4-dichloro-phenyl)-imidazo[1,2-a]pyrimidin-3-yl]-acetamide] | 62
29 | CC(=O)N(c1c(-c2sccc2Br)nc2ccc(C)cn12)C1CCCCC1 [Example 224, N-[2-(3-bromo-thiophen-2-yl)-6-methyl-imidazo[1,2-a]pyridin-3-yl]-N-cyclohexyl-acetamide] | 53
30 | CC(=O)N(c1c(C)cccc1C)c1c(-c2ccc(C(=O)O)s2)nc2ccc(C)cn12 [Example 225, 5-{3-[acetyl-(2,6-dimethyl-phenyl)-amino]-6-methyl-imidazo[1,2-a]pyridin-2-yl}-thiophene-2-carboxylic acid] | 55
31 | CCCCN(C(C)=O)c1c(-c2cccc(OC)c2OC)nc2cc(C)ccn12 [Example 226, N-butyl-N-[2-(2,3-dimethoxy-phenyl)-7-methyl-imidazo[1,2-a]pyridin-3-yl]-acetamide] | 62
32 | CC(=O)N(c1c(-c2cccc(Cl)c2Cl)nc2ccccn12)C(C)(C)C [Example 227, N-tert-butyl-N-[2-(2,3-dichloro-phenyl)-imidazo[1,2-a]pyridin-3-yl]-acetamide] | 54
33 | CCCc1cccc2nc(-c3ccco3)c(N(C(C)=O)C(C)(C)CC(C)(C)C)n12 [Example 228, N-(2-furan-2-yl-5-propyl-imidazo[1,2-a]pyridin-3-yl)-N-(1,1,3,3-tetramethylbutyl)-acetamide] | 53
34 | CC(=O)N(c1c(-c2ccc(C(=O)O)s2)nc2ccccn12)C1CCCCC1 [Example 229, 5-[3-(acetyl-cyclohexyl-amino)-imidazo[1,2-a]pyridin-2-yl]-thiophene-2-carboxylic acid] | 59
35 | CC(=O)N(c1c(-c2ccc(C(=O)O)o2)nc2c(C)cccn12)C(C)(C)CC(C)(C)C [Example 230, 5-{3-[acetyl-(1,1,3,3-tetramethyl-butyl)-amino]-8-methyl-imidazo[1,2-a]pyridin-2-yl}-furan-2-carboxylic acid] | 52
36 | CCCCN(C(C)=O)c1c(-c2ccccn2)nc2c(C(=O)O)cccn12 [Example 231, 3-(acetyl-butyl-amino)-2-pyridin-2-yl-imidazo[1,2-a]pyridine-8-carboxylic acid] | 52
